We go through 25 compounds from patent publication US12612407B2, “Imidazo[2,1-f][1,2,4]triazin-4-amine derivatives as TLR7 agonist” (BEIGENE, LTD., priority 2020, dated 2026).

Molecules are shown by their SMILES.

The experiment has as its target T1, human TLR7 (Homo sapiens, UniProt Q9NYK1).
T1 construct: host or cells: HEK293 (HEK-Blue hTLR7)
T1 sequence (Q9NYK1 27-1049): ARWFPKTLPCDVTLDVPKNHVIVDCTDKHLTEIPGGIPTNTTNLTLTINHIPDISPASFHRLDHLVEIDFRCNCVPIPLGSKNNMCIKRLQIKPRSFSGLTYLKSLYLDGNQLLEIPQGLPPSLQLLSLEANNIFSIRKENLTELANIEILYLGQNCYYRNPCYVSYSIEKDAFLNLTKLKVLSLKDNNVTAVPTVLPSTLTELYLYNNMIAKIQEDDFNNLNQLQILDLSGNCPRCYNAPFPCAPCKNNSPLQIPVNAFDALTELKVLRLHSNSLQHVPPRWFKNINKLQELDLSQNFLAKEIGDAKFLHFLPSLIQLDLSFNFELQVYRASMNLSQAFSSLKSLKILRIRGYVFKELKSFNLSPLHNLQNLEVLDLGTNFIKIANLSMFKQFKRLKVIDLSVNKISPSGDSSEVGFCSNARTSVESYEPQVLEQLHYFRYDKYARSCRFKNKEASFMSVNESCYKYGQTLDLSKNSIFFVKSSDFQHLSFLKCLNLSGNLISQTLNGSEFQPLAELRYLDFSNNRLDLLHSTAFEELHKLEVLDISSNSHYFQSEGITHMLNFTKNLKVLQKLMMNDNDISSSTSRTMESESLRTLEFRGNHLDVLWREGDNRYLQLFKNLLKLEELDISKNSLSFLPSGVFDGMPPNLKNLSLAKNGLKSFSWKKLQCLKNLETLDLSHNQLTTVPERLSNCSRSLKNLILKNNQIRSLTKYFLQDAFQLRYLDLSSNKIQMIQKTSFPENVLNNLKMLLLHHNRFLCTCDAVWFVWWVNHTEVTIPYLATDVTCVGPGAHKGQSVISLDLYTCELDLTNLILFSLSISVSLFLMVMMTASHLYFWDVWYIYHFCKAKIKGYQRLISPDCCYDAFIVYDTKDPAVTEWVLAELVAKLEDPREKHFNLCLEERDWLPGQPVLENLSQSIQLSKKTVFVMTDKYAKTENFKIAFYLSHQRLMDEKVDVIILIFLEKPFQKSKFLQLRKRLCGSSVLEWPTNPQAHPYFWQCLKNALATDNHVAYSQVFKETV
The experiment can be described thus: HEK293-Blue hTLR7 Reporter Assay (QUANTI-BLUE, SEAP readout). The class given is cell-based. Conditions: HEK-Blue-hTLR7 cells, 24 hrs treatment, Table 1, B1-B232. Summed up:
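Compound titrations were applied for 24 h at 37° C to reporter HEK293 cells (4×10^4 per well) in which human TLR7 activation drives secreted alkaline phosphatase. Supernatants reacted with Quanti-blue 10-30 min, absorbance read at 620-655 nm, and EC50 derived by sigmoidal curve fitting.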
`CCCCOc1nc(N)c2ncc(Cc3cnc(N4CCN(CCc5ccccc5)CC4)c(C)c3)n2n1` [Compound B116, 2-butoxy-7-((5-methyl-6-(4-phenethylpiperazin-1-yl)pyridin-3-yl)methyl)imidazo[2,1-f][1,2,4]triazin-4-amine] returned an EC50 of 1190 nM. `CCC[C@@H](C)Oc1nc(N)c2ncc(Cc3cnc(N4CCNCC4)c(C)c3)n2n1` [Compound B117, (R)-7-((5-methyl-6-(piperazin-1-yl)pyridin-3-yl)methyl)-2-(pentan-2-yloxy)imidazo[2,1-f][1,2,4]triazin-4-amine] registered an EC50 of 62 nM. Compared with the last compound, the EC50 is about 19-fold lower.

Compound `COCCOCCOc1nc(N)c2ncc(Cc3cnc(N4CCNCC4)c(C)c3)n2n1` [Compound B119, 2-(2-(2-methoxyethoxy)ethoxy)-7-((5-methyl-6-(piperazin-1-yl)pyridin-3-yl)methyl)imidazo[2,1-f][1,2,4]triazin-4-amine] came in with an EC50 of more than 10000 nM.

In the case of `COCCOCCOCCOCCOCCOCCOc1nc(N)c2ncc(Cc3cnc(N4CCNCC4)c(C)c3)n2n1` [Compound B120, 2-((2,5,8,11,14,17-hexaoxanonadecan-19-yl)oxy)-7-((5-methyl-6-(piperazin-1-yl)pyridin-3-yl)methyl)imidazo[2,1-f][1,2,4]triazin-4-amine], the EC50 was more than 10000 nM. The compound `CCCCOc1nc(N)c2ncc(Cc3cnc(N4CCC(CN5CCCC5)CC4)c(C)c3)n2n1` [Compound B121, 2-butoxy-7-((5-methyl-6-(4-(pyrrolidin-1-ylmethyl)piperidin-1-yl)pyridin-3-yl)methyl)imidazo[2,1-f][1,2,4]triazin-4-amine] showed an EC50 of 31 nM.

As for `CCC[C@@H](C)Oc1nc(N)c2ncc(Cc3cnc(N4CCN(C(=O)CN(C)C)CC4)c(C)c3)n2n1` [Compound B124, (R)-1-(4-(5-((4-amino-2-(pentan-2-yloxy)imidazo[2,1-f][1,2,4]triazin-7-yl)methyl)-3-methylpyridin-2-yl)piperazin-1-yl)-2-(dimethylamino)ethan-1-one], the EC50 was 51 nM. Compound `CCC[C@H](C)Oc1nc(N)c2ncc(Cc3cnc(N4CCN(C(=O)CN(C)C)CC4)c(C)c3)n2n1` [Compound B125, (S)-1-(4-(5-((4-amino-2-(pentan-2-yloxy)imidazo[2,1-f][1,2,4]triazin-7-yl)methyl)-3-methylpyridin-2-yl)piperazin-1-yl)-2-(dimethylamino)ethan-1-one] returned an EC50 of 2.5 nM. The result for `CCCCOc1nc(N)c2ncc(Cc3cnc(N4CCC(CN(CC)CC)CC4)c(C)c3)n2n1` [Compound B126, 2-butoxy-7-((6-(4-((diethylamino)methyl)piperidin-1-yl)-5-methylpyridin-3-yl)methyl)imidazo[2,1-f][1,2,4]triazin-4-amine] reads 22 nM; that for `CCC[C@@H](C)Oc1nc(N)c2ncc(Cc3cnc(N4CCC(N(C)C)CC4)c(C)c3)n2n1` [Compound B127, (R)-7-((6-(4-(dimethylamino)piperidin-1-yl)-5-methylpyridin-3-yl)methyl)-2-(pentan-2-yloxy)imidazo[2,1-f][1,2,4]triazin-4-amine], 56 nM; that for `CCC[C@@H](C)Oc1nc(N)c2ncc(Cc3cnc(N4CCC(CN(C)C)CC4)c(C)c3)n2n1` [Compound B128, (R)-7-((6-(4-((dimethylamino)methyl)piperidin-1-yl)-5-methylpyridin-3-yl)methyl)-2-(pentan-2-yloxy)imidazo[2,1-f][1,2,4]triazin-4-amine], 41 nM. `CCCCCCCCCCCCCCCCCC(=O)N1CCN(c2ncc(Cc3cnc4c(N)nc(OCCCC)nn34)cc2C)CC1` [Compound B129, 1-(4-(5-((4-amino-2-butoxyimidazo[2,1-f][1,2,4]triazin-7-yl)methyl)-3-methylpyridin-2-yl)piperazin-1-yl)octadecan-1-one]: the EC50 was more than 10000 nM. The same measure for `CCCCOc1nc(N)c2ncc(Cc3cnc(N4CCC(N5CCN(C)CC5)CC4)c(C)c3)n2n1` [Compound B130, 2-butoxy-7-((5-methyl-6-(4-(4-methylpiperazin-1-yl)piperidin-1-yl)pyridin-3-yl)methyl)imidazo[2,1-f][1,2,4]triazin-4-amine]: 38 nM; for `CCCCOc1nc(N)c2ncc(Cc3cnc(N4CCC5(CCNCC5)CC4)c(C)c3)n2n1` [Compound B131, 2-butoxy-7-((5-methyl-6-(3,9-diazaspiro[5.5]undecan-3-yl)pyridin-3-yl)methyl)imidazo[2,1-f][1,2,4]triazin-4-amine]: 98 nM. Regarding `CCCCOc1nc(N)c2ncc(Cc3cnc(N4CCN[C@@H](C)C4)c(C)c3)n2n1` [Compound B132, (S)-2-butoxy-7-((5-methyl-6-(3-methylpiperazin-1-yl)pyridin-3-yl)methyl)imidazo[2,1-f][1,2,4]triazin-4-amine], the EC50 worked out at 48 nM. The result for `CCCC(C)Oc1nc(N)c2ncc(Cc3cnc(N4CCC(N(C)C)CC4)c(C)c3)n2n1` (stereo not shown) [Compound B133, 7-((6-(4-(dimethylamino)piperidin-1-yl)-5-methylpyridin-3-yl)methyl)-2-(pentan-2-yloxy)imidazo[2,1-f][1,2,4]triazin-4-amine] reads 5.6 nM; that for `CCCC(C)Oc1nc(N)c2ncc(Cc3cnc(N4CCC(CN(C)C)CC4)c(C)c3)n2n1` (stereo not shown) [Compound B134, 7-((6-(4-((dimethylamino)methyl)piperidin-1-yl)-5-methylpyridin-3-yl)methyl)-2-(pentan-2-yloxy)imidazo[2,1-f][1,2,4]triazin-4-amine], 6 nM. The same measure for `CCCCNc1nc(N)c2ncc(Cc3cnc(N4CCC(N(C)C)CC4)c(C)c3)n2n1` [Compound B135, N2-butyl-7-((6-(4-(dimethylamino)piperidin-1-yl)-5-methylpyridin-3-yl)methyl)imidazo[2,1-f][1,2,4]triazine-2,4-diamine]: 22 nM; for `CCCCOc1nc(N)c2ncc(Cc3cnc(N4CC(N)C4)c(C)c3)n2n1` [Compound B136, 7-((6-(3-aminoazetidin-1-yl)-5-methylpyridin-3-yl)methyl)-2-butoxyimidazo[2,1-f][1,2,4]triazin-4-amine]: 4980 nM; for `CCCC(C)Nc1nc(N)c2ncc(Cc3cnc(N4CCC(CN(C)C)CC4)c(C)c3)n2n1` (stereo not shown) [Compound B137, 7-((6-(4-((dimethylamino)methyl)piperidin-1-yl)-5-methylpyridin-3-yl)methyl)-N2-(pentan-2-yl)imidazo[2,1-f][1,2,4]triazine-2,4-diamine]: 4.1 nM.

As for `CCCC(C)Nc1nc(N)c2ncc(Cc3cnc(N4CCC(N(C)C)CC4)c(C)c3)n2n1` (stereo not shown) [Compound B138, 7-((6-(4-(dimethylamino)piperidin-1-yl)-5-methylpyridin-3-yl)methyl)-N^2-(pentan-2-yl)imidazo[2,1-f][1,2,4]triazine-2,4-diamine], the EC50 amounted to 5.5 nM. On to `CCCNc1nc(N)c2ncc(Cc3cnc(N4CCNCC4)c(C)c3)n2n1` [Compound B139, 7-((5-methyl-6-(piperazin-1-yl)pyridin-3-yl)methyl)-N2-propylimidazo[2,1-f][1,2,4]triazine-2,4-diamine], for which the response was half-maximal at 88 nM (EC50). With `CCCCc1nc(N)c2ncc(Cc3cnc(N4CCNCC4)c(C)c3)n2n1` [Compound B141, 2-butyl-7-((5-methyl-6-(piperazin-1-yl)pyridin-3-yl)methyl)imidazo[2,1-f][1,2,4]triazin-4-amine], a half-maximal effect (EC50) was put at 154 nM. As for `CCCCOc1nc(N)c2ncc(Cc3cnc(N4CCC(NC(=O)CN(C)C)CC4)c(C)c3)n2n1` [Compound B142, N-(1-(5-((4-amino-2-butoxyimidazo[2,1-f][1,2,4]triazin-7-yl)methyl)-3-methylpyridin-2-yl)piperidin-4-yl)-2-(dimethylamino)acetamidea], the response was half-maximal at 45 nM (EC50). In turn, `CCCC(CCC)Oc1nc(N)c2ncc(Cc3cnc(N4CCNCC4)c(C)c3)n2n1` [Compound B143, 2-(heptan-4-yloxy)-7-((5-methyl-6-(piperazin-1-yl)pyridin-3-yl)methyl)imidazo[2,1-f][1,2,4]triazin-4-amine] displayed an EC50 of 7.8 nM. In the case of `CCCCOc1nc(N)c2ncc(Cc3cnc(N4CCC(CN)CC4)c(C)c3)n2n1` [Compound B144, 7-((6-(4-(aminomethyl)piperidin-1-yl)-5-methylpyridin-3-yl)methyl)-2-butoxyimidazo[2,1-f][1,2,4]triazin-4-amine], the EC50 was more than 10000 nM.
